Assay results published in patent US8058467B2, “Prostaglandin derivatives” (Nicox S.A., priority 2004, dated 2011).

Legend:
[1] = system: rat pheochromocytoma cells (PC12); experiment: cGMP accumulation in PC12 cells (nitric oxide-mediated activity); type: cell-based; conditions: for EC50: Rattus norvegicus, PC-12, 0.75 h, 30 μM YC-1, read-out: EC50 (effective concentration producing half maximal response), cGMP accumulation
Procedure: The formation of cyclic guanosine-3′,5′ monophosphate (cGMP) in cells in the eye is involved in the regulation of aqueous humor flow. Thus, elevation of cGMP levels leads to decreased aqueous humor production and reduction of intraocular pressure.
We measured the effects of test drugs on cGMP formation in a well established cell assay.
Undifferentiated pheochromocytoma cells (PC12) were used. The monolayer cells were incubated for 45 min in Hank's Balanced Salt Solution enriched with 10 mM Hepes, 5 mM MgCl2 and 0.05% ascorbic acid at the final pH of 7.4 and containing 100 μM of the phosphodiesterase inhibitor, isomethyl-butyl-xanthine (IBMX), 30 μM of the guanylyl cyclase […], YC-1, and the test drugs at the appropriate concentration. The reaction was terminated by the removal of the incubating buffer followed by the addition of […] of 100% ice-cold ethanol. The plate was then dried under hot air steam and the residue dissolved, extracted and analysed using commercially available cyclic cGMP enzyme immunoassay kit.

[2] = system: carbomer-evoked increase in IOP; experiment: Intraocular pressure in carbomer-treated rabbits; type: in vivo, rabbit
Procedure: (§1) Male NZW rabbits ranging from 3-5 kgs of body weight were used in this study. Briefly, the ability of Latanoprost nitroderivative (compound 4, EXAMPLE 3) at reducing intraocular pressure (IOP) was tested in animals previously treated with intracameral injection of 0.25% carbomer solution installation until after a stable increase of the intraocular pressure was reached. In this particular study, test drugs were administered to one eye with the dosage schedule of 1 drop/eye/day for 5 days a week with a physiologic solution containing 0.005% of control or test compounds. The IOP was monitored 3 h after drug application, two-three times weekly for a total of 4 weeks. This concentration was chosen as it reflects that of latanoprost isopropyl ester currently used in clinic to treat the increase of IOP observed in glaucoma patients. Furthermore, at each visit, about 200 μl of aqueous humor was collected using a 30 gauge needle from both eyes under lidocaine anesthesia for further biochemical evaluation of cGMP, camp and nitrite/nitrate contents.

[3] = system: aqueous humor cGMP, cAMP and NOx; experiment: cGMP, cAMP and NOx content of aqueous humor in carbomer-treated rabbits; type: in vivo, rabbit; conditions: for NOx / cAMP / cGMP: aqueous humor; for NOx in intraocular aqueous humor (in words) / cGMP in intraocular aqueous humor (in words) / intraocular cAMP (in words): over the 4-week treatment
Procedure: as §1

[4] = 45 min, 100 μM IBMX, 30 μM YC-1
[5] = Day 2, 0.005% solution, 1 drop/eye/day, 3 h after application
[6] = Day 7, 0.005% solution, 1 drop/eye/day, 3 h after application
[7] = Day 10, 0.005% solution, 1 drop/eye/day, 3 h after application
[8] = Day 15, 0.005% solution, 1 drop/eye/day, 3 h after application
[9] = Day 17, 0.005% solution, 1 drop/eye/day, 3 h after application
[10] = Day 23, 0.005% solution, 1 drop/eye/day, 3 h after application
[11] = Day 25, 0.005% solution, 1 drop/eye/day, 3 h after application
[12] = Pre-treatment (baseline after intracameral 0.25% carbomer)

Row | Structure (SMILES) | Emax (maximum effect), cGMP accumulation [1, 4] | EC50 ([1]; 45 min, 100 μM IBMX) | IOP [2, 5] | IOP [2, 6] | IOP [2, 7] | IOP [2, 8] | IOP [2, 9] | IOP [2, 10] | IOP [2, 11] | IOP [2, 12] | NOx ([3]; I Week) | cAMP ([3]; I Week) | cGMP ([3]; I Week) | NOx ([3]; II Week) | cAMP ([3]; II Week) | cGMP ([3]; II Week) | NOx ([3]; III Week) | cAMP ([3]; III Week) | cGMP ([3]; III Week) | NOx ([3]; IV Week) | other results
1 | O=C(CCC/C=C\C[C@@H]1[C@@H](CC[C@@H](O)CCc2ccccc2)[C@H](O)C[C@@H]1O)OCCCCO[N+](=O)[O-] (relative stereo) [Compound 1, [1R-[1α(Z),2α(R*),3α,5α]]-7-[3,5-dihydroxy-2-(3-hydroxy-5-phenylpentyl)cyclopentyl]-5-heptenoic acid 4-(nitrooxy)butyl ester] | 290 % over vehicle | 2400 nM | – | – | – | – | – | – | – | – | – | – | – | – | – | – | – | – | – | – | –
2 | O=C(CCC/C=C\C[C@@H]1[C@@H](CC[C@@H](O)CCc2ccccc2)[C@H](O)C[C@@H]1O)Oc1cccc(CO[N+](=O)[O-])c1 (relative stereo) [Compound 4, [1R-[1α(Z),2β(R*),3α,5α]]-7-[3,5-dihydroxy-2-(3-hydroxy-5-phenylpentyl)cyclopentyl]-5-heptenoic acid 3-(nitrooxymethyl)phenyl ester] | 450 % over vehicle | 4400 nM | 31 ± 1 mmHg | 26 ± 1 mmHg | 20 ± 1 mmHg | 18 ± 2 mmHg | 16 ± 1 mmHg | 15 ± 1 mmHg | 14 ± 1 mmHg | 42 ± 2 mmHg | 22 ± 2 nmol/mg prot | 600 ± 25 fmol/mg prot | 102 ± 5 fmol/mg prot | 25 ± 3 nmol/mg prot | 650 ± 31 fmol/mg prot | 125 ± 5 fmol/mg prot | 26 ± 3 nmol/mg prot | 680 ± 28 fmol/mg prot | 140 ± 5 fmol/mg prot | 28 ± 3 nmol/mg prot | decrease of intraocular pressure ([2]; by the end of the study (4 weeks)): over 65%; decrease of intraocular pressure ([2]; within 7 days of repeated treatments): about 50%; cAMP ([3]; IV Week): 660 ± 22 fmol/mg prot; cGMP ([3]; IV Week): 160 ± 5 fmol/mg prot; NOx ([3]; Pre-treatment): 17 ± 1 nmol/mg prot; cAMP ([3]; Pre-treatment): 520 ± 20 fmol/mg prot; cGMP ([3]; Pre-treatment): 88 ± 5 fmol/mg prot; NOx in intraocular aqueous humor (in words) [3]: increased; cGMP in intraocular aqueous humor (in words) [3]: increased; intraocular cAMP (in words) [3]: remained unaltered
3 | COc1cc(/C=C/C(=O)OCCCCO[N+](=O)[O-])ccc1OC(=O)CCC/C=C\C[C@@H]1[C@@H](CC[C@@H](O)CCc2ccccc2)[C@H](O)C[C@@H]1O (relative stereo) [Compound 11, [1R-[1α(Z), 2β(R*),3α,5α]]-7-[3,5-dihydroxy-2-(3-hydroxy-5-phenylpentyl)cyclopentyl]-5-heptenoicacid[2-methoxy-4-[2-propenoyloxy(4-nitrooxybutyl)]]phenyl ester] | 480 % over vehicle | 1500 nM | – | – | – | – | – | – | – | – | – | – | – | – | – | – | – | – | – | – | –
4 | CC(C)OC(=O)CCC/C=C\C[C@@H]1[C@@H](CC[C@@H](O)CCc2ccccc2)[C@H](O)C[C@@H]1O [Latanoprost isopropyl ester, reference compound] | – | – | 34 ± 2 mmHg | 33 ± 3 mmHg | 30 ± 1 mmHg | 31 ± 2 mmHg | 30 ± 2 mmHg | 32 ± 2 mmHg | 30 ± 2 mmHg | 37 ± 2 mmHg | 18 ± 2 nmol/mg prot | 550 ± 22 fmol/mg prot | 88 ± 6 fmol/mg prot | 18 ± 1 nmol/mg prot | 600 ± 30 fmol/mg prot | 98 ± 6 fmol/mg prot | 19 ± 2 nmol/mg prot | 620 ± 31 fmol/mg prot | 99 ± 6 fmol/mg prot | 19 ± 2 nmol/mg prot | change of intraocular pressure (in words) ([2]; 0.005% solution, 1 drop/eye/day, 4 weeks): nor its isopropyl derivative elicited any appreciable change; cAMP ([3]; IV Week): 625 ± 31 fmol/mg prot; cGMP ([3]; IV Week): 100 ± 6 fmol/mg prot; NOx ([3]; Pre-treatment): 16 ± 1 nmol/mg prot; cAMP ([3]; Pre-treatment): 510 ± 18 fmol/mg prot; cGMP ([3]; Pre-treatment): 87 ± 6 fmol/mg prot; NOx in intraocular aqueous humor (in words) [3]: did not significantly affect; cGMP in intraocular aqueous humor (in words) [3]: did not significantly affect; intraocular cAMP (in words) [3]: did not significantly affect
5 | CC(C)OC(=O)CCC/C=C\C[C@@H]1[C@@H](CC[C@@H](O)CCc2ccccc2)[C@H](O)C[C@@H]1O [Latanoprost, reference compound] | Not effective | – | – | – | – | – | – | – | – | – | – | – | – | – | – | – | – | – | – | – | cGMP accumulation (in words) ([1]; 1-50 μM): not shared; EC50 (effective concentration producing half maximal response), cGMP accumulation [1, 4]: Not effective
